# Marks after values point to notes of the source that are not given here.
# What was measured:
# [1] = system: Septoria tritici; assay: Test F: preventive spray on wheat seedlings, wheat leaf blotch, visual disease rating; assay type: in vivo; settings: Zymoseptoria tritici, 200 ppm test suspension
# Description: General protocol for preparing test suspensions for Tests A-I: the test compounds were first dissolved in acetone in an amount equal to 3% of the final volume and then suspended at the desired concentration (in ppm) in acetone and purified water (50/50 mix by volume) containing 250 ppm of the surfactant Trem® 014 (polyhydric alcohol esters). The resulting test suspensions were then used in Tests A-I. Each test was conducted in triplicate, and the results were averaged. Spraying a 200 ppm test suspension to the point of run-off on the test plants was the equivalent of a rate of about 800 g/ha. Unless otherwise indicated, the rating values indicate a 200 ppm test suspension was used. (An asterisk “*” next to the rating value indicates a 40 ppm test suspension was used.) The test suspension was sprayed to the point of run-off on wheat seedlings. The following day the seedlings were inoculated with a spore suspension of Septoria tritici (the causal agent of wheat leaf blotch) and incubated in saturated atmosphere at 24° C. for 48 h. and then the seedlings were moved to a growth chamber at 20° C. for 19 additional days, after which time visual disease ratings were made. Results for Tests A-I are given in Table A. In the Table, a rating of 100 indicates 100% disease control and a rating of 0 indicates no disease control (relative to the controls). A hyphen (-) indicates no test results.
# [2] = system: Botrytis cinerea; assay: Test A: preventive spray on tomato seedlings, tomato Botrytis, visual disease rating; assay type: in vivo; settings: 200 ppm test suspension
# Description: General protocol for preparing test suspensions for Tests A-I: the test compounds were first dissolved in acetone in an amount equal to 3% of the final volume and then suspended at the desired concentration (in ppm) in acetone and purified water (50/50 mix by volume) containing 250 ppm of the surfactant Trem® 014 (polyhydric alcohol esters). The resulting test suspensions were then used in Tests A-I. Each test was conducted in triplicate, and the results were averaged. Spraying a 200 ppm test suspension to the point of run-off on the test plants was the equivalent of a rate of about 800 g/ha. Unless otherwise indicated, the rating values indicate a 200 ppm test suspension was used. (An asterisk “*” next to the rating value indicates a 40 ppm test suspension was used.) The test suspension was sprayed to the point of run-off on tomato seedlings. The following day the seedlings were inoculated with a spore suspension of Botrytis cinerea (the causal agent of tomato Botrytis) and incubated in saturated atmosphere at 20° C. for 48 h, and then moved to a growth chamber at 24° C. for 3 additional days, after which time visual disease ratings were made. Results for Tests A-I are given in Table A. In the Table, a rating of 100 indicates 100% disease control and a rating of 0 indicates no disease control (relative to the controls). A hyphen (-) indicates no test results.
# [3] = system: Puccinia recondita f. sp. tritici; assay: Test H: preventive spray on wheat seedlings, wheat leaf rust, visual disease rating; assay type: in vivo; settings: 200 ppm test suspension
# Description: General protocol for preparing test suspensions for Tests A-I: the test compounds were first dissolved in acetone in an amount equal to 3% of the final volume and then suspended at the desired concentration (in ppm) in acetone and purified water (50/50 mix by volume) containing 250 ppm of the surfactant Trem® 014 (polyhydric alcohol esters). The resulting test suspensions were then used in Tests A-I. Each test was conducted in triplicate, and the results were averaged. Spraying a 200 ppm test suspension to the point of run-off on the test plants was the equivalent of a rate of about 800 g/ha. Unless otherwise indicated, the rating values indicate a 200 ppm test suspension was used. (An asterisk “*” next to the rating value indicates a 40 ppm test suspension was used.) The test suspension was sprayed to the point of run-off on wheat seedlings. The following day the seedlings were inoculated with a spore suspension of Puccinia recondita f. sp. tritici (the causal agent of wheat leaf rust) and incubated in a saturated atmosphere at 20° C. for 24 h, and then moved to a growth chamber at 20° C. for 6 days, after which time visual disease ratings were made. Results for Tests A-I are given in Table A. In the Table, a rating of 100 indicates 100% disease control and a rating of 0 indicates no disease control (relative to the controls). A hyphen (-) indicates no test results.
# [4] = Single oral dose pharmacokinetics in rats, plasma and fat analysed by LC/MS (fat:plasma ratio); assay type: in vivo; settings: single dose via oral gavage, compared to corresponding compounds with a nonhydrogen substituent at the para position of the phenyl ring connected to R^1 and R^2
# Description: The pharmacokinetic properties of compounds of Formula 1 can be measured using a wide variety of assay protocols known in the science of pharmacology. In one illustrative method involving a single oral dose, three male and three female rats receive a single dose of a test substance via oral gavage. Approximately 0.25 mL of blood is collected via tail vein immediately prior to dosing, and then at 0.25, 0.5, 1, 2, 4, 8, 12, 24 h and every 24 h thereafter until sacrifice. At sacrifice, fat is also collected to determine the fat:plasma ratio at sacrifice. Blood is collected into tubes that contain ethylenediaminetetracetic acid (EDTA) and centrifuged at 2500×g in order to separate plasma from blood cells. The plasma is then extracted by protein precipitation using, for example, acetonitrile and a protein precipitation plate (e.g., Strata Impact Protein Precipitation Plate, part number CEO-7565 of Phenomenex, Torrance, Calif., U.S.A.) following directions provided for the plate. Alternatively, the plasma is extracted just with acetonitrile, vortexed (i.e. mixed using a vortex mixer), and centrifuged to pellet the proteins. After removal of the proteins, the plasma is analyzed for parent compound and/or metabolites by liquid chromatography-mass spectrometry (LC/MS). The fat is homogenized and extracted by an organic solvent such as acetonitrile. The extract is then analyzed for parent compound and/or metabolites by LC/MS. The plasma pharmacokinetic data is then analyzed using nonlinear modeling software (e.g., WinNonlin™ from Pharsight, Cary, N.C., U.S.A.) to determine half-life of the administered compound in plasma, the time after administration when the maximum plasma concentration is reached (Tmax), the maximum plasma concentration (Cmax) and the area under the plasma concentration curve (AUC). As analysis of fat requires rat sacrifice, fat data is obtained at single time points (i.e. the time of rat sacrifice). However, by using multiple rats sacrificed after different intervals from time of dosing, such parameters as Cmax for fat are determined.
# [5] = system: Blumeria graminis f. sp. tritici; assay: Test I: preventive spray on wheat seedlings, wheat powdery mildew, visual disease rating; assay type: in vivo; settings: 192 h, 200 ppm test suspension
# Description: General protocol for preparing test suspensions for Tests A-I: the test compounds were first dissolved in acetone in an amount equal to 3% of the final volume and then suspended at the desired concentration (in ppm) in acetone and purified water (50/50 mix by volume) containing 250 ppm of the surfactant Trem® 014 (polyhydric alcohol esters). The resulting test suspensions were then used in Tests A-I. Each test was conducted in triplicate, and the results were averaged. Spraying a 200 ppm test suspension to the point of run-off on the test plants was the equivalent of a rate of about 800 g/ha. Unless otherwise indicated, the rating values indicate a 200 ppm test suspension was used. (An asterisk “*” next to the rating value indicates a 40 ppm test suspension was used.) The test suspension was sprayed to the point of run-off on wheat seedlings. The following day the seedlings were inoculated with a spore dust of Blumeria graminis f. sp. tritici (also known as Erysiphe graminis f. sp. tritici, the causal agent of wheat powdery mildew) and incubated in a growth chamber at 20° C. for 8 days, after which time visual disease ratings were made. Results for Tests A-I are given in Table A. In the Table, a rating of 100 indicates 100% disease control and a rating of 0 indicates no disease control (relative to the controls). A hyphen (-) indicates no test results.
# [6] = system: Septoria nodorum; assay: Test E: preventive spray on wheat seedlings, Septoria glume blotch, visual disease rating; assay type: in vivo; settings: asterisked rating: test suspension other than 200 ppm
# Description: General protocol for preparing test suspensions for Tests A-I: the test compounds were first dissolved in acetone in an amount equal to 3% of the final volume and then suspended at the desired concentration (in ppm) in acetone and purified water (50/50 mix by volume) containing 250 ppm of the surfactant Trem® 014 (polyhydric alcohol esters). The resulting test suspensions were then used in Tests A-I. Each test was conducted in triplicate, and the results were averaged. Spraying a 200 ppm test suspension to the point of run-off on the test plants was the equivalent of a rate of about 800 g/ha. Unless otherwise indicated, the rating values indicate a 200 ppm test suspension was used. (An asterisk “*” next to the rating value indicates a 40 ppm test suspension was used.) The test suspension was sprayed to the point of run-off on wheat seedlings. The following day the seedlings were inoculated with a spore suspension of Septoria nodorum (the causal agent of Septoria glume blotch) and incubated in a saturated atmosphere at 24° C. for 48 h, and then moved to a growth chamber at 20° C. for 9 days, after which time visual disease ratings were made. Results for Tests A-I are given in Table A. In the Table, a rating of 100 indicates 100% disease control and a rating of 0 indicates no disease control (relative to the controls). A hyphen (-) indicates no test results.
smiles,measurement,setting,value
"Cc1nn(C)c(Nc2c(F)cccc2Cl)c1-c1ccc(F)cc1Br [Compound 4, 4-(2-bromo-4-fluorophenyl)-N-(2-chloro-6-fluorophenyl)-1,3-dimethyl-1H-pyrazol-5-amine]",pest or weed control at 200 ppm,[1],100%
same,pest or weed control at 200 ppm,[2],100%
same,pest or weed control at 200 ppm,[3],100%
same,distribution into fat,[4],significantly diminished distribution into fat
same,pest or weed control at 200 ppm,[5],100%
"Cc1nn(C)c(Nc2c(F)cccc2Br)c1-c1ccc(F)cc1Cl [Compound 5, N-(2-bromo-6-fluorophenyl)-4-(2-chloro-4-fluorophenyl)-1,3-dimethyl-1H-pyrazol-5-amine]",pest or weed control at 200 ppm,[1],100%
same,pest or weed control at 200 ppm,[2],100%
same,pest or weed control at 200 ppm,[3],100%
same,distribution into fat,[4],significantly diminished distribution into fat
same,pest or weed control at 200 ppm,[5],100%
"Cc1nn(C)c(Nc2c(F)cccc2Br)c1-c1ccc(F)cc1Br [Compound 7, 4-(2-bromo-4-fluorophenyl)-N-(2-bromo-6-fluorophenyl)-1,3-dimethyl-1H-pyrazol-5-amine]",melting point,,154 to 156 °C
same,pest or weed control at 200 ppm,[1],100%
same,pest or weed control at 200 ppm,[2],100%
same,pest or weed control at 200 ppm,[3],100%
same,pest or weed control at 200 ppm,[5],100%
"Cc1nn(C)c(Nc2ccccc2Cl)c1-c1ccc(F)cc1Br [Compound 8, 4-(2-bromo-4-fluorophenyl)-N-(2-chlorophenyl)-1,3-dimethyl-1H-pyrazol-5-amine]",pest or weed control at 200 ppm,[1],100%
same,pest or weed control at 200 ppm,[2],100%
same,pest or weed control at 200 ppm,[3],99%
same,pest or weed control at 200 ppm,[5],100%
"Cc1nn(C)c(Nc2ccccc2Br)c1-c1ccc(F)cc1Cl [Compound 9, N-(2-bromophenyl)-4-(2-chloro-4-fluorophenyl)-1,3-dimethyl-1H-pyrazol-5-amine]",Test E rating (% disease control),[6],0* %
"Cc1nn(C)c(Nc2ccccc2Cl)c1-c1ccc(F)cc1Cl [Compound 10, 4-(2-chloro-4-fluorophenyl)-N-(2-chlorophenyl)-1,3-dimethyl-1H-pyrazol-5-amine]",Test E rating (% disease control),[6],0* %
"Cc1nn(C)c(Nc2c(F)cccc2F)c1-c1ccc(F)cc1Br [Compound 11, 4-(2-bromo-4-fluorophenyl)-N-(2,6-difluorophenyl)-1,3-dimethyl-1H-pyrazol-5-amine]",Test E rating (% disease control),[6],60* %

# Reference: patent US10015966B2, “Fungicidal pyrazole mixtures” (E I DU PONT DE NEMOURS AND COMPANY, priority 2012, dated 2018)
